Assays:
Test in all cases: cells
[1] = tested on: MN-60; format: functional, cell-based, Homo sapiens; details: Homo sapiens, MN-60;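 also: growth inhibition of the MN-60 cell line, determined with a cell viability assay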
Description: SANGER: Inhibition of human MN-60 cell growth in a cell viability assay.

[2] = tested on: KY821; format: functional, cell-based, Homo sapiens; details: Homo sapiens, KY821;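 also: growth inhibition of human KY821 cells, read out by a cell viability assay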
Description: SANGER: Inhibition of human KY821 cell growth in a cell viability assay.

[3] = tested on: LNCaP-Clone-FGC; format: functional, cell-based, Homo sapiens; details: Homo sapiens, LNCaP-Clone-FGC
Description: SANGER: Inhibition of human LNCaP-Clone-FGC cell growth in a cell viability assay.

[4] = tested on: CTV-1; format: functional, cell-based, Homo sapiens; details: Homo sapiens, CTV-1;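 also: growth inhibition of the cell line, read out with a cell viability assay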
Description: SANGER: Inhibition of human CTV-1 cell growth in a cell viability assay.

[5] = tested on: NCI-H69; format: functional, cell-based, Homo sapiens; details: Homo sapiens, NCI-H69;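 also: growth inhibition of the cell line, read out with a cell viability assay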
Description: SANGER: Inhibition of human NCI-H69 cell growth in a cell viability assay.

[6] = tested on: K5; format: functional, cell-based, Homo sapiens; details: Homo sapiens, K5
Description: SANGER: Inhibition of human K5 cell growth in a cell viability assay.

[7] = tested on: SW684; format: functional, cell-based, Homo sapiens; details: Homo sapiens, SW684; read-out: IC50;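 also: growth inhibition of human SW684 cells, measured by a cell viability assay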
Description: SANGER: Inhibition of human SW684 cell growth in a cell viability assay.

[8] = tested on: VA-ES-BJ; format: functional, cell-based, Homo sapiens; details: Homo sapiens, VA-ES-BJ;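 also: growth inhibition of the VA-ES-BJ cell line, read out by a cell viability assay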
Description: SANGER: Inhibition of human VA-ES-BJ cell growth in a cell viability assay.

[9] = tested on: 8-MG-BA; format: functional, cell-based, Homo sapiens; details: Homo sapiens, 8-MG-BA;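 also: growth inhibition of 8-MG-BA cells, read out with a cell viability assay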
Description: SANGER: Inhibition of human 8-MG-BA cell growth in a cell viability assay.

[10] = tested on: CCRF-CEM; format: functional, cell-based, Homo sapiens; details: Homo sapiens, CCRF-CEM;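 also: inhibition of CCRF-CEM cell growth, measured by a cell viability assay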
Description: SANGER: Inhibition of human CCRF-CEM cell growth in a cell viability assay.

[11] = tested on: SF-126; format: functional, cell-based, Homo sapiens; details: Homo sapiens, SF-126;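 also: growth inhibition of human SF126 cells, read out with a cell viability assay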
Description: SANGER: Inhibition of human SF126 cell growth in a cell viability assay.

[12] = tested on: KNS-42; format: functional, cell-based; details: Homo sapiens;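 also: growth inhibition of KNS-42 cells, read out with a cell viability assay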
Description: SANGER: Inhibition of human KNS-42 cell growth in a cell viability assay.

[13] = tested on: HD-MY-Z; format: functional, cell-based, Homo sapiens; details: Homo sapiens, HD-MY-Z;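 also: growth inhibition of HD-MY-Z cells, read out with a cell viability assay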
Description: SANGER: Inhibition of human HD-MY-Z cell growth in a cell viability assay.

[14] = tested on: EOL1; format: functional, cell-based, Homo sapiens; details: Homo sapiens, EOL1;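 also: growth inhibition of EoL-1 cells, read out by a cell viability assay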
Description: SANGER: Inhibition of human EoL-1-cell cell growth in a cell viability assay.

[15] = tested on: LU-139; format: functional, cell-based, Homo sapiens; details: Homo sapiens, LU-139
Description: SANGER: Inhibition of human LU-139 cell growth in a cell viability assay.

[16] = tested on: GI-ME-N; format: functional, cell-based, Homo sapiens; details: Homo sapiens, GI-ME-N;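 also: growth inhibition of human GI-ME-N cells, read out with a cell viability assay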
Description: SANGER: Inhibition of human GI-ME-N cell growth in a cell viability assay.

[17] = tested on: NOS-1; format: functional, cell-based, Homo sapiens; details: Homo sapiens, NOS-1;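 also: growth inhibition of the human NOS-1 cell line, read out with a cell viability assay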
Description: SANGER: Inhibition of human NOS-1 cell growth in a cell viability assay.

[18] = tested on: ES8; format: functional, cell-based, Homo sapiens; details: Homo sapiens, ES8;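 also: growth inhibition of human ES8 cells, read out with a cell viability assay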
Description: SANGER: Inhibition of human ES8 cell growth in a cell viability assay.

[19] = tested on: SH-4; format: functional, cell-based; details: Homo sapiens;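 also: growth inhibition of SH-4 cells, read out with a cell viability assay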
Description: SANGER: Inhibition of human SH-4 cell growth in a cell viability assay.

[20] = tested on: SJSA-1; format: functional, cell-based, Homo sapiens; details: Homo sapiens, SJSA-1;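 also: growth inhibition of human SJSA-1 cells, read out through a cell viability measurement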
Description: SANGER: Inhibition of human SJSA-1 cell growth in a cell viability assay.

[21] = tested on: SK-MEL-2; format: functional, cell-based, Homo sapiens; details: Homo sapiens, SK-MEL-2;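 also: growth inhibition of human SK-MEL-2 cells measured with a cell viability assay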
Description: SANGER: Inhibition of human SK-MEL-2 cell growth in a cell viability assay.

[22] = tested on: KG-1; format: functional, cell-based, Homo sapiens; details: Homo sapiens, KG-1;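 also: growth inhibition of KG-1 cells, read out by a cell viability assay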
Description: SANGER: Inhibition of human KG-1 cell growth in a cell viability assay.

[23] = tested on: KGN; format: functional, cell-based, Homo sapiens; details: Homo sapiens, KGN;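 also: growth inhibition of KGN cells, read out with a cell viability assay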
Description: SANGER: Inhibition of human KGN cell growth in a cell viability assay.

[24] = tested on: U-266; format: functional, cell-based, Homo sapiens; details: Homo sapiens, U-266
Description: SANGER: Inhibition of human U-266 cell growth in a cell viability assay.

[25] = tested on: MZ7-mel; format: functional, cell-based, Homo sapiens; details: Homo sapiens, MZ7-mel;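 also: growth inhibition of human MZ7-mel cells, measured by a cell viability assay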
Description: SANGER: Inhibition of human MZ7-mel cell growth in a cell viability assay.

[26] = tested on: LC-2-ad; format: functional, cell-based, Homo sapiens; details: Homo sapiens, LC-2-ad;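 also: growth inhibition of human LC-2-ad cells, read out with a cell viability assay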
Description: SANGER: Inhibition of human LC-2-ad cell growth in a cell viability assay.

[27] = tested on: JVM-3; format: functional, cell-based, Homo sapiens; details: Homo sapiens, JVM-3;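 also: growth inhibition of human JVM-3 cells, read out with a cell viability assay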
Description: SANGER: Inhibition of human JVM-3 cell growth in a cell viability assay.

[28] = tested on: D283 Med; format: functional, cell-based, Homo sapiens; details: Homo sapiens, D283 Med
Description: SANGER: Inhibition of human D-283MED cell growth in a cell viability assay.

[29] = tested on: NCI-H1092; format: functional, cell-based, Homo sapiens; details: Homo sapiens, NCI-H1092;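 also: cell growth inhibition measured with a cell viability assay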
Description: SANGER: Inhibition of human NCI-H1092 cell growth in a cell viability assay.

[30] = tested on: TK-10; format: functional, cell-based, Homo sapiens; details: Homo sapiens, TK-10;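 also: growth inhibition of TK-10 cells, read out in a cell viability assay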
Description: SANGER: Inhibition of human TK10 cell growth in a cell viability assay.

[31] = tested on: NB13; format: functional, cell-based, Homo sapiens; details: Homo sapiens, NB13;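 also: cell viability readout measuring growth inhibition of human NB13 cells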
Description: SANGER: Inhibition of human NB13 cell growth in a cell viability assay.

[32] = tested on: A101D; format: functional, cell-based, Homo sapiens; details: Homo sapiens, A101D;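 also: growth inhibition of the cell line, measured with a viability assay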
Description: SANGER: Inhibition of human A101D cell growth in a cell viability assay.

[33] = tested on: LU-134-A; format: functional, cell-based, Homo sapiens; details: Homo sapiens, LU-134-A
Description: SANGER: Inhibition of human LU-134-A cell growth in a cell viability assay.

[34] = tested on: TE-9; format: functional, cell-based, Homo sapiens; details: Homo sapiens, TE-9;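 also: cell growth inhibition, measured with a cell viability readout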
Description: SANGER: Inhibition of human TE-9 cell growth in a cell viability assay.

[35] = tested on: HCE-T; format: functional, cell-based, Homo sapiens; details: Homo sapiens, HCE-T;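 also: cell viability assay read-out, reporting inhibition of HCE-T cell growth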
Description: SANGER: Inhibition of human HCE-T cell growth in a cell viability assay.

[36] = tested on: KURAMOCHI; format: functional, cell-based, Homo sapiens; details: Homo sapiens, KURAMOCHI;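 also: growth inhibition of KURAMOCHI cells, read out with a cell viability assay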
Description: SANGER: Inhibition of human KURAMOCHI cell growth in a cell viability assay.

[37] = tested on: LAMA-84; format: functional, cell-based, Homo sapiens; details: Homo sapiens, LAMA-84;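 also: growth inhibition of LAMA-84 cells, read out with a cell viability assay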
Description: SANGER: Inhibition of human LAMA-84 cell growth in a cell viability assay.

[38] = tested on: NB6; format: functional, cell-based, Homo sapiens; details: Homo sapiens, NB6;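 also: growth inhibition of NB6 cells, read out by a cell viability assay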
Description: SANGER: Inhibition of human NB6 cell growth in a cell viability assay.

[39] = tested on: NCI-H526; format: functional, cell-based, Homo sapiens; details: Homo sapiens, NCI-H526;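 also: growth inhibition of the human NCI-H526 cell line, measured by a cell viability assay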
Description: SANGER: Inhibition of human NCI-H526 cell growth in a cell viability assay.

[40] = tested on: MHH-PREB-1; format: functional, cell-based, Homo sapiens; details: Homo sapiens, MHH-PREB-1;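 also: cell viability assay measuring inhibition of proliferation of human MHH-PREB-1 cells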
Description: SANGER: Inhibition of human MHH-PREB-1 cell growth in a cell viability assay.

[41] = tested on: MMAC-SF; format: functional, cell-based; details: Homo sapiens;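 also: growth inhibition of human MMAC-SF cells, read out with a cell viability assay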
Description: SANGER: Inhibition of human MMAC-SF cell growth in a cell viability assay.

[42] = tested on: GR-ST; format: functional, cell-based, Homo sapiens; details: Homo sapiens, GR-ST
Description: SANGER: Inhibition of human GR-ST cell growth in a cell viability assay.

[43] = tested on: CAS-1; format: functional, cell-based, Homo sapiens; details: Homo sapiens, CAS-1;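 also: growth inhibition of CAS-1 cells, measured with a cell viability assay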
Description: SANGER: Inhibition of human CAS-1 cell growth in a cell viability assay.

[44] = tested on: MS-1; format: functional, cell-based, Homo sapiens; details: Homo sapiens, MS-1;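 also: growth inhibition of MS-1 cells, read out by cell viability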
Description: SANGER: Inhibition of human MS-1 cell growth in a cell viability assay.

[45] = tested on: 697; format: functional, cell-based, Homo sapiens; details: Homo sapiens
Description: SANGER: Inhibition of human 697 cell growth in a cell viability assay.

[46] = tested on: ONS-76; format: functional, cell-based, Homo sapiens; details: Homo sapiens, ONS-76;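 also: growth inhibition of human ONS-76 cells, read out with a cell viability assay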
Description: SANGER: Inhibition of human ONS-76 cell growth in a cell viability assay.

[47] = tested on: GB-1; format: functional, cell-based, Homo sapiens; details: Homo sapiens, GB-1;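 also: growth of GB-1 cells judged by a viability assay, IC50 marks the concentration inhibiting growth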
Description: SANGER: Inhibition of human GB-1 cell growth in a cell viability assay.

[48] = tested on: NMC-G1; format: functional, cell-based, Homo sapiens; details: Homo sapiens, NMC-G1;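 also: growth inhibition of the NMC-G1 cell line, measured with a cell viability read-out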
Description: SANGER: Inhibition of human NMC-G1 cell growth in a cell viability assay.

[49] = tested on: KS-1; format: functional, cell-based; details: Homo sapiens;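 also: growth inhibition of KS-1 cells, read out with a cell viability assay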
Description: SANGER: Inhibition of human KS-1 cell growth in a cell viability assay.

[50] = tested on: NCI-H1838; format: functional, cell-based, Homo sapiens; details: Homo sapiens, NCI-H1838;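 also: growth inhibition of NCI-H1838 cells, determined with a cell viability readout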
Description: SANGER: Inhibition of human NCI-H1838 cell growth in a cell viability assay.

[51] = tested on: HCE-4; format: functional, cell-based; details: Homo sapiens;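 also: cell viability assay measuring inhibition of growth in the human HCE-4 cell line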
Description: SANGER: Inhibition of human HCE-4 cell growth in a cell viability assay.

## CC(C)C[C@H](NC(=O)[C@H](Cc1ccccc1)NC(=O)c1cnccn1)B(O)O [BORTEZOMIB]
[1]
  IC50: 8.14 nM
[2]
  IC50: > 20 nM
[3]
  IC50: > 20 nM
[4]
  IC50: 2.8 nM
[5]
  IC50: 1.54 nM
[6]
  IC50: 1.28 nM
[7]
  IC50: 0.821 nM
[8]
  IC50: 1.09 nM
[9]
  IC50: 0.25 nM
[10]
  IC50: 1.13 nM
[11]
  IC50: 0.701 nM
[12]
  IC50: 0.258 nM
[13]
  IC50: 3.93 nM
[14]
  IC50: 18.3 nM
[15]
  IC50: 5.13 nM
[16]
  IC50: 0.634 nM
[17]
  IC50: 2.11 nM
[18]
  IC50: 0.4 nM
[19]
  IC50: 0.173 nM
[20]
  IC50: 2.21 nM
[21]
  IC50: > 20 nM
[22]
  IC50: 7.94 nM
[23]
  IC50: 2.15 nM
[24]
  IC50: 1.76 nM
[25]
  IC50: 1.09 nM
[26]
  IC50: 1.08 nM
[27]
  IC50: 13 nM
[28]
  IC50: > 20 nM
[29]
  IC50: 1.8 nM
[30]
  IC50: 0.679 nM
[31]
  IC50: 2 nM
[32]
  IC50: 0.225 nM
[33]
  IC50: 7.39 nM
[34]
  IC50: 0.182 nM
[35]
  IC50: 0.439 nM
[36]
  IC50: 1.72 nM
[37]
  IC50: 3.49 nM
[38]
  IC50: 8.48 nM
[39]
  IC50: > 20 nM
[40]
  IC50: 4.86 nM
[41]
  IC50: 0.216 nM
[42]
  IC50: > 20 nM
[43]
  IC50: 1.37 nM
[44]
  IC50: > 20 nM
[45]
  IC50: 1.99 nM
[46]
  IC50: 0.33 nM
[47]
  IC50: 1.81 nM
[48]
  IC50: 3.68 nM
[49]
  IC50: 0.34 nM
[50]
  IC50: > 20 nM

## Cc1ccc(C(=O)Nc2ccc(CN3CCN(C)CC3)c(C(F)(F)F)c2)cc1C#Cc1cnc2cccnn12 [PONATINIB]
[1]
  IC50: > 512 nM
[2]
  IC50: > 512 nM
[3]
  IC50: > 512 nM
[4]
  IC50: 5.21 nM
[5]
  IC50: > 512 nM
[6]
  IC50: > 512 nM
[7]
  IC50: > 512 nM
[8]
  IC50: > 512 nM
[9]
  IC50: > 512 nM
[10]
  IC50: > 512 nM
[11]
  IC50: 171 nM
[12]
  IC50: > 512 nM
[13]
  IC50: > 512 nM
[14]
  IC50: < 2 nM
[15]
  IC50: > 512 nM
[16]
  IC50: > 512 nM
[17]
  IC50: 244 nM
[18]
  IC50: > 512 nM
[20]
  IC50: > 512 nM
[21]
  IC50: > 512 nM
[22]
  IC50: 32.9 nM
[23]
  IC50: > 512 nM
[24]
  IC50: > 512 nM
[25]
  IC50: > 512 nM
[26]
  IC50: 243 nM
[27]
  IC50: > 512 nM
[28]
  IC50: > 512 nM
[29]
  IC50: > 512 nM
[30]
  IC50: > 512 nM
[31]
  IC50: > 512 nM
[32]
  IC50: > 512 nM
[33]
  IC50: > 512 nM
[34]
  IC50: > 512 nM
[35]
  IC50: > 512 nM
[36]
  IC50: 284 nM
[37]
  IC50: < 2 nM
[38]
  IC50: > 512 nM
[39]
  IC50: > 512 nM
[40]
  IC50: > 512 nM
[41]
  IC50: > 512 nM
[42]
  IC50: > 512 nM
[43]
  IC50: 283 nM
[44]
  IC50: > 512 nM
[45]
  IC50: 189 nM
[46]
  IC50: > 512 nM
[47]
  IC50: 125 nM
[48]
  IC50: > 512 nM
[49]
  IC50: > 512 nM
[51]
  IC50: > 512 nM
[50]
  IC50: > 512 nM

## NC(=O)c1ccc(N(C(N)=O)c2c(F)cccc2F)nc1-c1ccc(F)cc1F [VX-702]
[1]
  IC50: > 2000 nM
[2]
  IC50: 396 nM
[3]
  IC50: > 2000 nM
[4]
  IC50: 184 nM
[5]
  IC50: 99.4 nM
[6]
  IC50: 229 nM
[7]
  IC50: > 2000 nM
[8]
  IC50: > 2000 nM
[9]
  IC50: > 2000 nM
[10]
  IC50: > 2000 nM
[11]
  IC50: > 2000 nM
[12]
  IC50: > 2000 nM
[13]
  IC50: > 2000 nM
[15]
  IC50: 194 nM
[16]
  IC50: > 2000 nM
[17]
  IC50: > 2000 nM
[18]
  IC50: > 2000 nM
[19]
  IC50: > 2000 nM
[20]
  IC50: > 2000 nM
[21]
  IC50: > 2000 nM
[22]
  IC50: > 2000 nM
[23]
  IC50: > 2000 nM
[24]
  IC50: > 2000 nM
[25]
  IC50: > 2000 nM
[26]
  IC50: > 2000 nM
[27]
  IC50: > 2000 nM
[28]
  IC50: > 2000 nM
[29]
  IC50: > 2000 nM
[30]
  IC50: > 2000 nM
[31]
  IC50: > 2000 nM
[32]
  IC50: > 2000 nM
[33]
  IC50: > 2000 nM
[34]
  IC50: > 2000 nM
[35]
  IC50: > 2000 nM
[36]
  IC50: > 2000 nM
[37]
  IC50: > 2000 nM
[38]
  IC50: > 2000 nM
[39]
  IC50: > 2000 nM
[40]
  IC50: > 2000 nM
[41]
  IC50: > 2000 nM
[42]
  IC50: > 2000 nM
[43]
  IC50: > 2000 nM
[44]
  IC50: > 2000 nM
[45]
  IC50: > 2000 nM
[46]
  IC50: > 2000 nM
[47]
  IC50: > 2000 nM
[48]
  IC50: > 2000 nM
[49]
  IC50: > 2000 nM
[51]
  IC50: > 2000 nM
[50]
  IC50: > 2000 nM

Source: ChEMBL document CHEMBL1201861, “Genomics of Drug Sensitity in Cancer screening data, Wellcome Trust Sanger Institute”
